Laboratory results reported in US20260041620A1, “NOVEL AMINO ACID BASED SALTS, COMPOSITIONS AND METHODS FOR TREATING SKIN AND IMPROVING SKIN REJUVENATION AND LONGEVITY” (Sytheon Ltd, priority 2023, published 2026).
Read-outs that look alike come from different tables or passages of the source.

Columns and labels:
HDAC 5 = HDAC 5 (Homo sapiens, UniProt Q9UQL6)
Experimental: (§1) Test materials were stored at room temperature and stock solutions were prepared at 20 mg/ml in DMSO. Further dilutions were made in sterile distilled water immediately before being added to the reaction mixture containing a substrate, and the reaction was triggered by the addition of purified HDAC enzymes, Double distilled water was the negative control and trichostatin (1.5 ug/ml) was used as a positive control for validation of each study. The test procedure was as directed in the assay kits. The products of the reactions were measured by fluorometry at ex/em 350/450 nm using multi-well plate fluorometer Cytofluor 4000 (Applied Biosystem, Foster City, CA) or using SpectraMax i3× Multi-Mode Detection Platform from Molecular Devices (Sunnyvale, CA).
(§2) Statistical significance was assessed with a two-tail Student test. Deviations of ≤20% as compared to water control with p values below 0.05 were considered statistically significant.

HDAC2 = HDAC2 (Homo sapiens, UniProt Q92769)
Experimental: as §1, §2

HDAC7 = target: T1, HDAC7 (Homo sapiens, UniProt Q8WUI4)
T1 sequence (Q8WUI4 1-952): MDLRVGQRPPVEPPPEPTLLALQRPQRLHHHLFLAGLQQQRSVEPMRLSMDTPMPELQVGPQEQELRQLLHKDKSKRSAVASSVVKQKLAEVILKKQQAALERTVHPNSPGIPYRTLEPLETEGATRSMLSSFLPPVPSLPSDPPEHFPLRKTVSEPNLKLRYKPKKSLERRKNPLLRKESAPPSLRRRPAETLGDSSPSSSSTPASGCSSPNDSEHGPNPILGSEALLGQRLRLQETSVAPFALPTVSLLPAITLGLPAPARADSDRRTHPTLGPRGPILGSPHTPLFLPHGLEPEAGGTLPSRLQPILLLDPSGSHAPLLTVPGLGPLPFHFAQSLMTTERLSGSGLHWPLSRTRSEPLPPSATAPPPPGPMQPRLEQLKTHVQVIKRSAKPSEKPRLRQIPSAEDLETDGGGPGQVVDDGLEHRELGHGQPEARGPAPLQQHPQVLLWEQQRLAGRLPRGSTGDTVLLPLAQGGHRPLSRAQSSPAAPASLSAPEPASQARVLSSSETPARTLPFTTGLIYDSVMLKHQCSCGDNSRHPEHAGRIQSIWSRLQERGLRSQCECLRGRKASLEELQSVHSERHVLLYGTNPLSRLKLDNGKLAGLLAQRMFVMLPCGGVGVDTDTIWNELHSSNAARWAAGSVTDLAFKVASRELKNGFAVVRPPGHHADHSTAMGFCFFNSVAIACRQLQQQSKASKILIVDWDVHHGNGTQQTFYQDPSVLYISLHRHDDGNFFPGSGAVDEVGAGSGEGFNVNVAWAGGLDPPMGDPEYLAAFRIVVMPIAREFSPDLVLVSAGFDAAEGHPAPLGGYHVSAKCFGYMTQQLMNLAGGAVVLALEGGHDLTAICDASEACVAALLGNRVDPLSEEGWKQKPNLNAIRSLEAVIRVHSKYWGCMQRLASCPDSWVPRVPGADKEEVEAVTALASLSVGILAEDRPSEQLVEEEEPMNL
Experimental: as §1, §2

HDAC6 = target: T2, HDAC6 (Homo sapiens, UniProt Q9UBN7)
T2 sequence (Q9UBN7 1-1215): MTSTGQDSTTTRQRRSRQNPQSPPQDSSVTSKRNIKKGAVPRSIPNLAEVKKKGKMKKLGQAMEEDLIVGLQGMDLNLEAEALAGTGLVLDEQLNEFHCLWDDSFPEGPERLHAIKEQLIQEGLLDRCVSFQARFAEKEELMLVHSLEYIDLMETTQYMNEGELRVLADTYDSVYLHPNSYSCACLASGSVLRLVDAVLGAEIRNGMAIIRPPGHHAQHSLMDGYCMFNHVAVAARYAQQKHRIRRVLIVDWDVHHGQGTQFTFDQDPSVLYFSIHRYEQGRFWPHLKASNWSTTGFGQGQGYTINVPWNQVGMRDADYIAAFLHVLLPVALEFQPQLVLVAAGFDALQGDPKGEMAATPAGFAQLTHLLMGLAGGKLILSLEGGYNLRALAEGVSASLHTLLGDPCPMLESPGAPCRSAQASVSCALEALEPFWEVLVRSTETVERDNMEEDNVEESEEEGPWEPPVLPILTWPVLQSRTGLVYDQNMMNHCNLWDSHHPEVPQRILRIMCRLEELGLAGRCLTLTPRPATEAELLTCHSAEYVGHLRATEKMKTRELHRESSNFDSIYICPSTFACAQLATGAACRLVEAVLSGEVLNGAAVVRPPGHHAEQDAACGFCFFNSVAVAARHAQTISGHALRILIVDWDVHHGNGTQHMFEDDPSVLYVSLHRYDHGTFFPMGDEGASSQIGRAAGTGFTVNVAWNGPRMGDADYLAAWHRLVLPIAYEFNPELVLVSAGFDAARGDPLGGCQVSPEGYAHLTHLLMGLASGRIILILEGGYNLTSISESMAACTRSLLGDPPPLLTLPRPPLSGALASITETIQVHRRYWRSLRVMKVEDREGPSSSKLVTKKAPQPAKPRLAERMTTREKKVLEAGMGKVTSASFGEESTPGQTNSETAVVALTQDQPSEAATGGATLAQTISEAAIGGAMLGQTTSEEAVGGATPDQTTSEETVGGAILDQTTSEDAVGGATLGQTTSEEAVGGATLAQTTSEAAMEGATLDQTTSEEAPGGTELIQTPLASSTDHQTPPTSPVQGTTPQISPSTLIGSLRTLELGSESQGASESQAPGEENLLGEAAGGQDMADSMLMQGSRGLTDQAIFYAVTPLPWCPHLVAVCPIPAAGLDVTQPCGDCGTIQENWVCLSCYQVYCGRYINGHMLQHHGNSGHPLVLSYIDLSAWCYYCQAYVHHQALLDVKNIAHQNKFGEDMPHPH
Experimental: as §1, §2

HDAC1 = HDAC1 (Homo sapiens, UniProt Q13547); assay: HDAC 1 fluorogenic assay kit
HDAC1, sequence (Q13547 whole entry): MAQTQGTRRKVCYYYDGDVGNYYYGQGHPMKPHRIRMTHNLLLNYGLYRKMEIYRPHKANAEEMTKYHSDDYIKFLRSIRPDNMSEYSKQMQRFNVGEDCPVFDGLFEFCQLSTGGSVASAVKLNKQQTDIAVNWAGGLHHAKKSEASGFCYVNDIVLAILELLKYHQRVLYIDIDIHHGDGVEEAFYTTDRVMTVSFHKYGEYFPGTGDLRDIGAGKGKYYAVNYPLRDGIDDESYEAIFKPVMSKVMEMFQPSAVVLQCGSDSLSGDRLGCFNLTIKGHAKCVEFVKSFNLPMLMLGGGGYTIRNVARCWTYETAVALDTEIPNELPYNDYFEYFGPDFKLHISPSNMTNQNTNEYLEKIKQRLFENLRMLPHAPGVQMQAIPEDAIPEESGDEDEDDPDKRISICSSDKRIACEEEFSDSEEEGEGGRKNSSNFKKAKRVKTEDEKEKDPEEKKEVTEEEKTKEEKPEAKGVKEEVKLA
Experimental: as §1, §2

FABP-3 = target: T3, FABP-3 (Homo sapiens, UniProt P05413); assay: FABP-3 ELISA inhibitory assay; format: biochemical
T3 construct: purchased Neovateinbio PT-452
T3 sequence (P05413 whole entry): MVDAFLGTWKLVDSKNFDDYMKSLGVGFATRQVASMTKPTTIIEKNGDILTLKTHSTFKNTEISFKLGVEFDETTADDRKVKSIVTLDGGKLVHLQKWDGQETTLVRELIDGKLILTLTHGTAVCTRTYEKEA

HDAC 5, sequence (Q9UQL6 whole entry): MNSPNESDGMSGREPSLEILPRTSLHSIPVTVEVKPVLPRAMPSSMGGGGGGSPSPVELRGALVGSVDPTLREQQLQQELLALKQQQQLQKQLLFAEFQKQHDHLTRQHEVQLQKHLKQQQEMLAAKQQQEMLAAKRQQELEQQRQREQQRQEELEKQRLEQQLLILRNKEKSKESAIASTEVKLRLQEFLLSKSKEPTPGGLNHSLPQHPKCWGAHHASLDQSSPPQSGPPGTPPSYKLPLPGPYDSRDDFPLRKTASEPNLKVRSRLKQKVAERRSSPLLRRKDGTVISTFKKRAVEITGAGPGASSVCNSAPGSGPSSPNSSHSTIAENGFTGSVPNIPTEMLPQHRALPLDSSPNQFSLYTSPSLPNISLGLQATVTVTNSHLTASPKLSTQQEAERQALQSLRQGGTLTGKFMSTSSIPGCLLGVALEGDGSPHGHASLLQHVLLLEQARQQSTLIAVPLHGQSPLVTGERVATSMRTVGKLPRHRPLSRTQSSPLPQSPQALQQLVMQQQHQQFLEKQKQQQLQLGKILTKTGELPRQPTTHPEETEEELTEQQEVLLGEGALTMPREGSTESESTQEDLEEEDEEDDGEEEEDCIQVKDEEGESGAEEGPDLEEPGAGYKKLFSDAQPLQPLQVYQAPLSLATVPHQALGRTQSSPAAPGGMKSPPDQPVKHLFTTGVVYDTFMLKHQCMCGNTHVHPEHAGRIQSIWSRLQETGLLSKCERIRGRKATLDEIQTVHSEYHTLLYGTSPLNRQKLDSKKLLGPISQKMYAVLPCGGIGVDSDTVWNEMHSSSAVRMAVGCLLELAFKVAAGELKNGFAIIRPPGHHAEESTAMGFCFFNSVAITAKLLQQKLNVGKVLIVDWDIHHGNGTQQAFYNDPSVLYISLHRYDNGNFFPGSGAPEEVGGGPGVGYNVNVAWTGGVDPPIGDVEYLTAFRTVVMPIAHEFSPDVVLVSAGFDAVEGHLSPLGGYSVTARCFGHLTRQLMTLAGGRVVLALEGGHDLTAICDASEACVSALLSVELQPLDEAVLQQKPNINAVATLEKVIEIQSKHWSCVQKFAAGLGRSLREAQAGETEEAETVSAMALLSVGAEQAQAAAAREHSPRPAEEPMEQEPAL
HDAC2, sequence (Q92769 whole entry): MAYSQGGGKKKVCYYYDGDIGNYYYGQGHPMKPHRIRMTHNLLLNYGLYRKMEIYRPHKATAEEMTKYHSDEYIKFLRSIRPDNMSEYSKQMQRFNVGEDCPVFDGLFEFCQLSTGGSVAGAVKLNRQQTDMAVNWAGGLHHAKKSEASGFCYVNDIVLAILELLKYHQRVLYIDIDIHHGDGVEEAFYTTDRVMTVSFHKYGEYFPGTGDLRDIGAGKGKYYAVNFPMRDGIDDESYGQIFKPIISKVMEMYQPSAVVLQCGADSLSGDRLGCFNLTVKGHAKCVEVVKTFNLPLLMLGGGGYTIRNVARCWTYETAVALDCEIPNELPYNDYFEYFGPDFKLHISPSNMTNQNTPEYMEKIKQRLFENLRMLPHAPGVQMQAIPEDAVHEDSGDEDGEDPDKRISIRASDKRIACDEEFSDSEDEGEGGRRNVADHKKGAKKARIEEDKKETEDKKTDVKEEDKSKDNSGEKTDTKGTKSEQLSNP

Compound | HDAC 5 activity, % of water-treated controls (HDAC 5; 25 ug/ml) | HDAC 5 activity, % of water-treated controls (HDAC 5; 50 ug/ml) | HDAC 5 activity, % of water-treated controls (HDAC 5; 100 ug/ml) | HDAC 5 activity, % of water-treated controls (HDAC 5; 200 ug/ml) | HDAC 2 activity, % of water-treated controls (HDAC2; 25 ug/ml) | HDAC 2 activity, % of water-treated controls (HDAC2; 50 ug/ml) | HDAC 2 activity, % of water-treated controls (HDAC2; 100 ug/ml) | HDAC 2 activity, % of water-treated controls (HDAC2; 200 ug/ml) | HDAC 7 activity, % of water-treated controls (HDAC7; 25 ug/ml) | HDAC 7 activity, % of water-treated controls (HDAC7; 50 ug/ml) | HDAC 7 activity, % of water-treated controls (HDAC7; 100 ug/ml) | HDAC 7 activity, % of water-treated controls (HDAC7; 200 ug/ml) | HDAC 6 activity, % of water-treated controls (HDAC6; 5 ug/ml) | HDAC 6 activity, % of water-treated controls (HDAC6; 25 ug/ml) | HDAC 6 activity, % of water-treated controls (HDAC6; 50 ug/ml) | HDAC 6 activity, % of water-treated controls (HDAC6; 100 ug/ml) | HDAC 6 activity, % of water-treated controls (HDAC6; 200 ug/ml) | HDAC 1 activity, % of water-treated controls (HDAC1; 50 ug/ml) | HDAC 1 activity, % of water-treated controls (HDAC1; 100 ug/ml) | FABP-3 IC50 (FABP-3) | further results
CCCC(=O)NCCCCC(NC(=O)CCC)C(=O)[O-].CCCC(=O)NCCCCC(NC(=O)CCC)C(=O)[O-].[Ca+2] (stereo not shown) [Ca di-(di-n-butyryl lysinate), calcium di-(di-n-butyryl lysinate)] | 128% | 123% | 117% | 88% | 96% | 90% | 97% | 94% | 101% | 99% | 99% | 97% | 105% | 97% | 124% | 128% | 134% | 89% | 135% | 188.6 µg/mL | HDAC 5 activity, % of water-treated controls (HDAC 5; 5 ug/ml): 144%; HDAC 1 activity, % of water-treated controls (HDAC1; 25 ug/ml): 80%
Zinc Di-lysinate [Zn dilysinate] | 73% | 52% | 31% | 14% | 12% | 1% | 1% | 9% | 30% | 18% | 10% | 10% | 22% | 16% | 17% | 14% | 8% | 44% | 32% | 255.2 µg/mL | HDAC 1 activity, % of water-treated controls (HDAC1; 25 ug/ml): 52%
CCCC(=O)NCCCC[C@H](NC(=O)CCC)C(=O)[O-].CCCC(=O)NCCCC[C@H](NC(=O)CCC)C(=O)[O-].[Zn+2] [Zn di-(di-n-butyryl lysinate), Zinc di-(di-n-butyryl lysinate)] | 89% | 65% | 33% | 17% | 20% | 20% | 17% | 15% | 28% | 15% | 9% | 9% | 25% | 18% | 19% | 21% | 19% | 38% | 49% | 242.4 µg/mL | HDAC 7 activity, % of water-treated controls (HDAC7; 5 ug/ml): 56%; HDAC 1 activity, % of water-treated controls (HDAC1; 5 ug/ml): 30%; HDAC 1 activity, % of water-treated controls (HDAC1; 25 ug/ml): 32%; HDAC 1 activity, % of water-treated controls (HDAC1; 200 ug/ml): 45%
CCCC(=O)[O-].[Na+] [Sodium butyrate, reference compound] |  | 38% | 26% | 15% |  | 89% | 93% | 94% |  | 96% | 94% | 87% |  |  | 107% | 110% | 92% | 109% | 46% |  | HDAC 5 activity, % of water-treated controls (HDAC 5; 400 ug/ml): 11%; HDAC 2 activity, % of water-treated controls (HDAC2; 400 ug/ml): 95%; HDAC 7 activity, % of water-treated controls (HDAC7; 400 ug/ml): 91%; HDAC 6 activity, % of water-treated controls (HDAC6; 400 ug/ml): 102%; HDAC 1 activity, % of water-treated controls (HDAC1; 200 ug/ml): 39%; HDAC 1 activity, % of water-treated controls (HDAC1; 400 ug/ml): 38%
CCCC(=O)N[C@@H](CC(C)C)C(=O)[O-].CCCC(=O)N[C@@H](CC(C)C)C(=O)[O-].[Zn+2] [Zn di-(n-butyryl leucinate), Zinc di-(n-butyryl leucinate)] | 128% | 91% | 50% | 26% | 39% | 37% | 31% | 28% | 18% | 11% | 9% | 9% | 20% | 20% | 21% | 20% | 17% |  |  | 630.9 µg/mL | HDAC 7 activity, % of water-treated controls (HDAC7; 5 ug/ml): 41%
